# Key:
# [1] = target: benzodiazepine binding site; assay: Inhibition of [3H]-flunitrazepam by 2′ flavonoid derivatives (Example 7)
# [2] = test system: benzodiazepine site on GABAA receptor; assay: GABA shift experiment, [3H]-Ro15-1788 competition with/without 10 μM GABA; format: binding, rat
# [3] = target: BZD-S; assay: Radio-receptor binding assay, [3H]flunitrazepam, forebrain crude synaptosomal fraction (Example 3); set-up: species or system Sprague-Dawley rats; conditions: 1 nM [3H]flunitrazepam, rat forebrain; read-out: Inhibition of 3H-Flunitrazepam Ki
# [4] = test system: mice; assay: Hole-board test; format: in vivo, Male ICR mice; set-up: Time spent head-dipping: unit not given here
# [5] = test system: mice; assay: Elevated plus-maze test; format: in vivo, Male ICR mice
# [6] = test system: mice; assay: Horizontal wire test; format: in vivo, Male ICR mice
# [7] = target: benzodiazepine site (BZD-S) of the GABAA receptor
# [8] = test system: benzodiazepine site (BZD-S) of the GABAA receptor; assay: Radioligand receptor binding, displacement of [3H]-flunitrazepam (Example 1)
# [9] = test system: benzodiazepine site; conditions: 10^-4 M GABA, rat cerebral cortex membranes; cited from earlier work
# [10] = test system: benzodiazepine site; conditions: 10^-5 M muscimol, rat cerebellar membranes; cited from earlier work
# [11] = 1 mg/kg oral, time cell empty (1 hour), 5-min test
# [12] = 5 mg/kg oral, time cell empty (1 hour), 5-min test
# [13] = 1 mg/kg oral, time cell empty, 5-min test
# [14] = 5 mg/kg oral, time cell empty, 5-min test
compound,measurement,setting,value
"COc1ccc2oc(-c3ccccc3N)cc(=O)c2c1 [2′-amino, 6-methoxyflavone]",IC50,[1],2000 nM
"COc1c(O)c(OC)c2oc(-c3ccccc3O)cc(=O)c2c1O [Compound 1, 5,7,2′-trihydroxy-6,8-dimethoxyflavone]",GABA ratio,"[2]; IC50 without GABA / IC50 with 10 μM GABA, 1 nM [3H]-Ro15-1788",1.20
same,Ki,[3],1.1 nM
same,Number of head dips,"[4]; 1 mg/kg oral, 20 min",13.56 ± 1.81
same,Number of rearings,"[4]; 1 mg/kg oral, 20 min",24.19 ± 3.53
same,Time spent head-dipping,"[4]; 1 mg/kg oral, 20 min",15.38 ± 1.59
same,Number of head dips,"[4]; 1 mg/kg oral, 60 min",15.75 ± 2.53
same,Number of rearings,"[4]; 1 mg/kg oral, 60 min",23.94 ± 2.34
same,Time spent head-dipping,"[4]; 1 mg/kg oral, 60 min",16.75 ± 3.78
same,Number of head dips,"[4]; 2 mg/kg oral, 20 min",13.13 ± 1.96
same,Number of rearings,"[4]; 2 mg/kg oral, 20 min",22.06 ± 3.17
same,Time spent head-dipping,"[4]; 2 mg/kg oral, 20 min",14.56 ± 2.04
same,Number of head dips,"[4]; 2 mg/kg oral, 60 min",14.50 ± 2.73
same,Number of rearings,"[4]; 2 mg/kg oral, 60 min",22.13 ± 2.46
same,Time spent head-dipping,"[4]; 2 mg/kg oral, 60 min",15.13 ± 2.20
same,"number of head-dips, time spent head-dipping and number of rearings","[4]; 4 mg/kg acute, twenty minutes after dosage",significant increase
same,Number of head dips,"[4]; 4 mg/kg oral, 20 min",20.25 ± 1.42
same,Number of rearings,"[4]; 4 mg/kg oral, 20 min",29.54 ± 2.09
same,Time spent head-dipping,"[4]; 4 mg/kg oral, 20 min",23.35 ± 1.28
same,Number of head dips,"[4]; 4 mg/kg oral, 60 min",16.95 ± 1.33
same,Number of rearings,"[4]; 4 mg/kg oral, 60 min",27.56 ± 2.79
same,Time spent head-dipping,"[4]; 4 mg/kg oral, 60 min",17.56 ± 1.20
same,Number of head dips,"[4]; 8 mg/kg oral, 20 min",18.46 ± 3.65
same,Number of rearings,"[4]; 8 mg/kg oral, 20 min",25.26 ± 2.74
same,Time spent head-dipping,"[4]; 8 mg/kg oral, 20 min",19.55 ± 4.23
same,Number of head dips,"[4]; 8 mg/kg oral, 60 min",15.72 ± 1.86
same,Number of rearings,"[4]; 8 mg/kg oral, 60 min",23.75 ± 3.18
same,Time spent head-dipping,"[4]; 8 mg/kg oral, 60 min",15.06 ± 1.98
same,"sedative effects (decrease in head-dips, time head-dipping, rearings)","[4]; mouse, in vivo",lack of sedative effects
same,% of entries into open arms,"[5]; 1 mg/kg oral, 20 min",18.39 ± 3.14%
same,% of time spent in open arms,"[5]; 1 mg/kg oral, 20 min",14.28 ± 2.36%
same,% of entries into open arms,"[5]; 1 mg/kg oral, 60 min",18.51 ± 3.34%
same,% of time spent in open arms,"[5]; 1 mg/kg oral, 60 min",15.80 ± 3.29%
same,% of entries into open arms,"[5]; 2 mg/kg oral, 20 min",18.30 ± 2.78%
same,% of time spent in open arms,"[5]; 2 mg/kg oral, 20 min",15.74 ± 3.00%
same,% of entries into open arms,"[5]; 2 mg/kg oral, 60 min",16.91 ± 2.49%
same,% of time spent in open arms,"[5]; 2 mg/kg oral, 60 min",16.84 ± 1.99%
same,anxiolysis compared to either dosage of diazepam,[5]; 4.0 mg/kg,more anxiolysis
same,% of entries into open arms,"[5]; 4 mg/kg oral, 20 min",32.28 ± 2.91 %
same,% of time spent in open arms,"[5]; 4 mg/kg oral, 20 min",33.55 ± 2.09 %
same,% of entries into open arms,"[5]; 4 mg/kg oral, 60 min",19.90 ± 1.63%
same,% of time spent in open arms,"[5]; 4 mg/kg oral, 60 min",15.69 ± 2.09%
same,% of entries into open arms,"[5]; 8 mg/kg oral, 20 min",28.90 ± 2.23 %
same,% of time spent in open arms,"[5]; 8 mg/kg oral, 20 min",25.62 ± 1.73 %
same,% of entries into open arms,"[5]; 8 mg/kg oral, 60 min",18.67 ± 2.24%
same,% of time spent in open arms,"[5]; 8 mg/kg oral, 60 min",16.76 ± 2.19%
same,time spent in open arms and entries made into open arms vs control,"[5]; 4.0 and 8.0 mg/kg, twenty minutes after dosage",significant increase
same,ability to grasp the wire,[6]; K36 dosage regimen 1.0-8.0 mg/kg,remained unchanged
same,Ki,[7],1.1 nM
same,fold difference in binding affinity,[8]; Compound 1 vs Compound 6 (K1),260 fold
same,IC50,"[8]; read-out: Inhibition of 3H-Flunitrazepam IC50, 1 nM [3H]-flunitrazepam, rat whole brain synaptosomal membrane",1.5 nM
"CN1C(=O)CN=C(c2ccccc2)c2cc(Cl)ccc21 [Diazepam, reference compound]","GABA ratio (IC50 ratio without GABA/with GABA), column C","[2]; 10^-5 M GABA, rat cerebral cortex membranes",2.0
same,Ki,[3],9.5 nM
same,Number of head dips,[4]; [11],19.12 ± 2.92
same,Number of rearings,[4]; [11],25.13 ± 2.85
same,Time spent head-dipping,[4]; [11],22.75 ± 2.59
same,Number of head dips,[4]; [12],17.25 ± 1.89
same,Number of rearings,[4]; [12],32.16 ± 3.15
same,Time spent head-dipping,[4]; [12],19.50 ± 2.33
same,"sedative effects (decrease in head-dips, time head-dipping, rearings)",[4]; at the dosage regimen,lack of sedative effects
same,% of entries into open arms,[5]; [13],26.48 ± 2.83 %
same,% of time spent in open arms,[5]; [13],28.71 ± 2.27 %
same,% of entries into open arms,[5]; [14],29.85 ± 1.29 %
same,% of time spent in open arms,[5]; [14],32.24 ± 1.56 %
same,time spent in open arms and entries made into open arms vs control,[5]; 1.0 and 5.0 mg/kg,dose dependent increase
same,ability to grasp the wire compared to control,[6]; 5.0 mg/kg,significant impairment
same,"GABA ratio (IC50 ratio without GABA/with GABA), column A",[9],2.9
same,"GABA ratio (IC50 ratio without GABA/with GABA), column B",[10],2.3

# Source: patent publication US6740677B2, “Methods of treating benzodiazepine site (BZD-S) associated syndromes using 2′ hydroxyflavonoids” (priority 2002, dated 2004)
